From a melting point compilation (Tetko et al.; mined from patent text by program, amines drawn as free bases though some values may be those of a salt) come the findings set out here.

Some results are limits rather than exact numbers.

Usually melting point stands for the temperature, or range, at which the solid turns liquid. `CCOc1ccc(-n2cccc2-c2ccc(S(N)(=O)=O)cc2)cc1` showed a melting point of 126 to 128 °C.
The figure for `O=S1(=O)N=CN(C2CC2)c2cc(F)cc(Br)c21` is 270 to 273 °C; for `O=C(O)CN1C(=O)C(=Cc2cccnc2)SC1=S` it is 261 to 264 °C.
For `O=C(O)c1cn(Cc2cnsn2)c2cc(F)c(F)cc2c1=O` the value was 278 to 282 °C; for `Nc1nccc(-c2ccccc2OCC(O)CN2CCN(c3ccc(Cl)cc3)CC2)n1` (centres undefined), 159 to 160 °C.
`Nc1ccc(C2=NNC(=O)Cc3cc4c(cc32)OCO4)cc1Cl` showed a melting point of 256 to 258 °C.
Consider `CN1CC(OC(c2ccccc2)c2ccccc2)C1`, for which the melting point fell in the range of 44 to 48 °C.
Regarding `COc1cc2cc(/C=C/C#N)sc2cc1OC`, the melting point was 154 to 158 °C.
With `CC(C)(C)C(=O)C(CC(=O)c1ccc(Cl)cc1)n1cncn1` (centres undefined), the melting point is 116 to 119 °C.
`COC(=O)COc1cccc2c1CCC(n1nc(-c3c(-c4ccccc4)nn4ccccc34)ccc1=O)C2=O` (centres undefined) returned a melting point of 175 to 176 °C.
As to `CC(C(N)=O)n1c(-c2ccc(Cl)cc2)nc2cccnc21` (centres undefined), the melting point was in the range of 202 to 204 °C.
Take `CC(O)c1ccc(-c2ccnc(Nc3ccc4c(c3)OCCO4)c2)cc1` (centres undefined): the melting point was 55.9 to 61.5 °C.
`CCCC(C)(COS(N)(=O)=O)COS(N)(=O)=O` yielded a melting point of 92 to 94 °C.
The molecule `COc1ccc(CSc2nnc(-c3ccc4[nH]ncc4c3)o2)cc1` returned a melting point of 204 to 205 °C.
Take `O[C@H]1c2cc(Oc3ccc4ccccc4n3)ccc2OC[C@H]1Oc1cccnc1` (relative stereo): the melting point fell in the range of 112 to 114 °C.
The molecule `CCCCOc1c(CNC(=O)OC(C)(C)C)n(CC(C)C)c(=O)c2ccc(C(=O)O)cc12` registered a melting point of 185 to 186 °C.
In turn, `Cc1c2c(c(C(C)(O)c3ccc(C(C)C)cc3)c(C)c1NC(=O)OC(C)(C)C)OCC2` (centres undefined) came in with a melting point of 185 to 186 °C.
`N#Cc1cccc(CN2C(=O)C3(COc4cc5c(cc43)OCCO5)c3ccccc32)c1` (centres undefined) gave a melting point of 94 to 96 °C.
For `O=C(Nc1ccccc1N1CCc2ccccc21)c1ccccc1F` the value was 139 to 141 °C; for `Nc1ccccc1NC(=O)c1cc2cccc(OCC(=O)O)c2o1`, 208 to 210 °C.
For the molecule `Nc1ccc(-c2cc3c(N4CCc5ccccc54)ncnc3[nH]2)cc1`, the melting point was > 300 °C.
In turn, `CN(C)Cc1cccc(-c2cc3c(Nc4ccc(F)c(Cl)c4)ncnc3[nH]2)c1` gave a melting point of 218 to 220 °C.
Regarding `CNc1nc(-c2cccc(NC(=O)c3ccccc3)c2)c2cc(OCc3ccccc3)c(OC)cc2n1`, the melting point was 204 to 206 °C.
Regarding `CCOC(=O)Nc1cccc(C(=O)C=CN(C)C)c1`, the melting point is 121 to 122 °C.
In turn, `S=C(NN=Cc1cccc(-c2ccccc2Cl)n1)NN1CCCC1` had a melting point of 187 to 188 °C.
Consider `O=C(O)C1COc2cc(Cl)c(Cl)cc2O1` (centres undefined), for which the melting point was in the range of 155 to 158 °C.
Turning to `CCCc1cc(N2CCC(NCC(O)c3nccc4ccccc34)CC2)nc2sc(C(N)=O)c(N)c12` (centres undefined), the melting point is < 150 °C.
The figure for `C=C(OCc1ccccc1)C(=O)OC` is 44.5 to 45.5 °C.
Take `CC(C)(C)c1ccc(C(O)CCCn2ccnc2)cc1` (centres undefined): the melting point lay within 205 to 207 °C.
`CC(=O)Nc1ccccc1NS(=O)(=O)c1cc(C(=O)O)cc(NCc2ccco2)c1Oc1ccccc1` returned a melting point of 207 to 210 °C.
The figure for `Clc1cc2nc(Cl)c(N3CCNCC3)nc2cc1Cl` is > 300 °C; for `COC(=O)Nc1ccc(OCc2nc3cc(F)ccc3s2)cc1C` it is 165 to 168 °C; for `O=C(O)c1oc(=O)c2cc(Cl)c(Cl)cc2c1-c1ccccc1` it is 243 to 244 °C.
The molecule `CNC(=O)[C@@H]1C[C@@H](OCc2ccccc2)CN1S(=O)(=O)c1ccc(Cl)c(COc2cccc3c(-n4ccnc4)cc(C)nc23)c1Cl` displayed a melting point of 100 °C.
